Test results as given in PMC12802961 (Journal of Antimicrobial Chemotherapy, 2025).
“And” between values parts separate entries of the source, which are not always exact repeats. Identical values can stand only once.

How the values were obtained:
[1] = Single-dose plasma pharmacokinetics, s.c., infected neutropenic mice
Experimental: All animal procedures were carried out in the Animal Facility for Medical and Scientific Purposes of the University General Hospital Attikon (EL 25 BIO 014), Athens, Greece. […] Outbred female CD-1 mice, obtained by the Hellenic Pasteur Institute, Greece, and Charles River Laboratories Models and Services, Germany, were used at the age of 7–8 weeks, weighing 20–25 g. The animals were allowed to acclimatize for at least 5 days upon arrival and were housed under standard conditions with water and food supplied ad libitum. […] Infection was induced (Day 0) by intramuscular injection of 0.05 mL bacterial inoculum of approximately 10^5–10^6 cfu/thigh.
The dose was administered s.c. (0.1 mL) 2 h after infection (t = 0 h). Blood samples were collected in 1 mL K3EDTA tubes through orbital sinus bleeding under isoflurane anaesthesia. Animals were immediately euthanized through cervical dislocation and blood samples taken at timepoints 0, 0.08, 0.25, 0.5, 0.75, 1, 1.5, 2, 3, 4, 6, and 8 h after single dose injection. Blood samples were centrifuged immediately after collection in a pre-cooled centrifuge, and plasma was stored at −80°C. For each timepoint two animals were euthanized in order to have duplicates for each condition.
The Cmax values were calculated from raw data and the AUCs were calculated using the trapezoidal rule. […] Equations used in the program were the classical polyexponential equations Ci(t) = PolyExp(i, n, t), where i = number of the compartments, n = number of doses and t = time from last dose (http://www.boomer.org/c/p4/c19/c19.pdf). The %fT > Ct was then determined using a bisectional rootfinder for intersections between simulated curve and concentration, and calculating the difference between intersection values. Free drug concentrations were used in all calculations.
For taniborbactam, a population pharmacokinetic model was developed using nonlinear mixed-effects modelling (NONMEM). The analysis was performed on the natural logarithm of the concentrations using the FOCE method with INTERACTION. All mice were assumed to weigh 1kg, resulting in PK parameters corresponding to a per kg base. […] Tools used to evaluate and visualize the model were RStudio (v0.98.1049), R (v3.1.2), XPose (v4.5.3) and PsN (v4.6.0), all with the graphical interface Pirana (v2.9.0).
To determine the structural pharmacokinetic model 1-, 2- and 3-compartment models were tested. Pharmacokinetic parameters were estimated in terms of central and peripheral volume of distribution (Vc and Vp), clearance (CL), and intercompartmental clearance (Q). Addition of interindividual variability (IPV), described using an exponential eta model, was evaluated for each pharmacokinetic parameter. The covariance between values for IPV was estimated using a […] matrix. Residual variability between observed and predicted plasma concentrations was described using an additional error model for logarithmically transformed data. The minimum value of objective function (OFV) was used as a criterion for model selection. […] Model adequacy was further evaluated by using various residual plots (‘goodness-of-fit’ plots) and values of random effects in variances. In the second step relationships between pharmacokinetic parameters and potential covariates were investigated. […] Dose covariates were modelled by using an exponential model, place of infection was modelled proportionally. Criteria for the inclusion of covariates in the model were the OFV, results of graphical evaluation of the parameter-covariate relationship and the decrease in parameter variability.
Three procedures were used to validate the final model. As an internal validation method, a bootstrap resampling method was used. Bootstrap datasets (n=1000) were generated by sampling randomly from the original dataset with replacement. Parameters were estimated for each of the replicate datasets using the developed model.

[2] = Protein binding, equilibrium dialysis chamber, LC-MS/MS; assay type: in vitro ADME
Source text: […]. […] […].
. […] Free drug concentrations were used in all calculations. […]

E. coli 52 = experiment: Neutropenic murine thigh infection model; assay type: in vivo, Escherichia coli
Experimental: (§1) All dosing regimens were performed in at least two animals per dosing regimen.
(§2) At t = 0 h, 2 h after infection, two mice were humanely euthanized to determine the initial number of cfu/thigh just before treatment. […] Subsequently, thighs were homogenized using the Ultra-Turrax homogenizer (IKA Labortechnik, Germany). For each thigh 10-fold dilution series were prepared and 3 × 10 µL per dilution were plated (Chromagar, bioMérieux, NL). The following day, colonies were counted and the number of cfu/thigh was calculated.
(§3) Free drug concentrations were used in all calculations.

K. pneumoniae 59 = experiment: Neutropenic murine thigh infection model; assay type: in vivo, Klebsiella pneumoniae; details: + cefepime q2h 4 mg/kg
Experimental: as §1, §2, §3

[3] = taniborbactam, two-compartment model
[4] = + cefepime q2h 4 mg/kg, Ct 0.015 mg/L
[5] = + cefepime q2h 4 mg/kg, Ct 0.03 mg/L
[6] = + cefepime q2h 4 mg/kg, Ct 0.06 mg/L
[7] = + cefepime q2h 4 mg/kg, Ct 0.125 mg/L
[8] = + cefepime q2h 4 mg/kg, Ct 0.25 mg/L
[9] = + cefepime q2h 4 mg/kg, Ct 0.5 mg/L
[10] = + cefepime q2h 4 mg/kg, Ct 1 mg/L
[11] = + cefepime q2h 4 mg/kg, Ct 2 mg/L
[12] = + cefepime q2h 4 mg/kg, Ct 4 mg/L
[13] = taniborbactam q2h + cefepime q2h 4 mg/kg

In the case of `NCCN[C@H]1CC[C@H](CC(=O)N[C@H]2Cc3cccc(C(=O)O)c3OB2O)CC1` [taniborbactam, Taniborbactam], the “Absorption rate (h-1), Bootstrap” value ([1]; 772 successful bootstrap runs) is reported as 20 h⁻¹, the “Central volume of distribution (L/Kg), Bootstrap median (95-percentile range)” value ([1]; 772 successful bootstrap runs) is reported as 0.63 (0.58-0.68) L/Kg and the “Clearance (L/h/Kg), Bootstrap median (95-percentile range)” value ([1]; 772 successful bootstrap runs) is reported as 1.49 (1.23-1.57) L/h/Kg. For the same compound, the “IPV (%) on clearance, Bootstrap median (95-percentile range)” value ([1]; 772 successful bootstrap runs) was 14 (8-19) %, the “IPV (%) on intercompartmental clearance, Bootstrap median (95-percentile range)” value ([1]; 772 successful bootstrap runs) was 59 (40-77) % and the “Intercompartmental clearance (L/h), Bootstrap median (95-percentile range)” value ([1]; 772 successful bootstrap runs) was 0.11 (0.08-0.35) L/h. The “Peripheral volume of distribution (L/Kg), Bootstrap median (95-percentile range)” value ([1]; 772 successful bootstrap runs) was 0.94 (0.46-13.0) L/Kg, the t1/2a ([1]; central compartment, estimated) was 17.6 min and the “IPV (%) on clearance, Estimation, value (RSE)” value ([1]; interindividual variability of CL) was 14.2 (14%). The “IPV (%) on intercompartmental clearance, Estimation, value (RSE)” value ([1]; interindividual variability of Q) was 60.7 (13%), the t1/2b ([1]; peripheral compartment, estimated) was 45 min and the “Central volume of distribution (L/Kg), Estimation, value (RSE)” value ([1]; population PK model (NONMEM)) was 0.628 (4%) L/Kg. For the same compound, the “Clearance (L/h/Kg), Estimation, value (RSE)” value ([1]; population PK model (NONMEM)) was 1.49 (3%) L/h/Kg, the “Peripheral volume of distribution (L/Kg), Estimation, value (RSE)” value ([1]; population PK model (NONMEM)) was 0.926 (1%) L/Kg and the “Absorption rate (h-1), Estimation” value ([1]; population PK model (NONMEM), fixed) was 20 (fixed) h-1. For the same compound, the “Intercompartmental clearance (L/h), Estimation, value (RSE)” value ([1]; population PK model (NONMEM), per kg) was 0.109 (10%) L/h, the Vc [1, 3] was 0.628 L/kg and the “volume of peripheral compartment Vp” value [1, 3] was 0.926 L/kg. The Ka ([1]; taniborbactam, two-compartment model, fixed value) was 20 h⁻¹, the Protein binding [2] was 19.6% and the “1 log kill: Taniborbactam %ƒT > Ct 0.015 mg/L” value (E. coli 52; [4]) was 100%. For the same compound, the “Stasis: Taniborbactam %ƒT > Ct 0.015 mg/L” value (E. coli 52; [4]) was 70.24%, the “1 log kill: Taniborbactam %ƒT > Ct 0.03 mg/L” value (E. coli 52; [5]) was 100% and the “Stasis: Taniborbactam %ƒT > Ct 0.03 mg/L” value (E. coli 52; [5]) was 53.44%. The “1 log kill: Taniborbactam %ƒT > Ct 0.06 mg/L” value (E. coli 52; [6]) was 99.7%, the “Stasis: Taniborbactam %ƒT > Ct 0.06 mg/L” value (E. coli 52; [6]) was 36.6% and 36.55% and the “1 log kill: Taniborbactam %ƒT > Ct 0.125 mg/L” value (E. coli 52; [7]) was 82.8% and 82.82%. The “Stasis: Taniborbactam %ƒT > Ct 0.125 mg/L” value (E. coli 52; [7]) was 19.7% and 19.66%, the “1 log kill: Taniborbactam %ƒT > Ct 0.25 mg/L” value (E. coli 52; [8]) was 65.92% and the “Stasis: Taniborbactam %ƒT > Ct 0.25 mg/L” value (E. coli 52; [8]) was 2.74%. The “1 log kill: Taniborbactam %ƒT > Ct 0.5 mg/L” value (E. coli 52; [9]) was 49.3%, the “Stasis: Taniborbactam %ƒT > Ct 0.5 mg/L” value (E. coli 52; [9]) was 0% and the “1 log kill: Taniborbactam %ƒT > Ct 1 mg/L” value (E. coli 52; [10]) was 32.14%. For the same compound, the “Stasis: Taniborbactam %ƒT > Ct 1 mg/L” value (E. coli 52; [10]) was 0%, the “1 log kill: Taniborbactam %ƒT > Ct 2 mg/L” value (E. coli 52; [11]) was 15.24% and the “Stasis: Taniborbactam %ƒT > Ct 2 mg/L” value (E. coli 52; [11]) was 0%. For the same compound, the “1 log kill: Taniborbactam %ƒT > Ct 4 mg/L” value (E. coli 52; [12]) was 0%, the “Stasis: Taniborbactam %ƒT > Ct 4 mg/L” value (E. coli 52; [12]) was 0% and the “1 log kill: Taniborbactam total daily dose, mg/kg” value (E. coli 52; [13]) was 41.8 mg/kg. The “Stasis: Taniborbactam total daily dose” value (E. coli 52; [13]) was 3.20 mg/kg, the “Stasis: Taniborbactam %ƒT > Ct 0.015 mg/L” value (K. pneumoniae 59; Ct 0.015 mg/L) was 100% and the “1 log kill: Taniborbactam %ƒT > Ct 0.015 mg/L” value (K. pneumoniae 59; Ct 0.015 mg/L, at extrapolated dose) was 100%. The “Stasis: Taniborbactam %ƒT > Ct 0.03 mg/L” value (K. pneumoniae 59; Ct 0.03 mg/L) was 100%, the “1 log kill: Taniborbactam %ƒT > Ct 0.03 mg/L” value (K. pneumoniae 59; Ct 0.03 mg/L, at extrapolated dose) was 100% and the “Stasis: Taniborbactam %ƒT > Ct 0.06 mg/L” value (K. pneumoniae 59; Ct 0.06 mg/L) was 86.2%. For the same compound, the “1 log kill: Taniborbactam %ƒT > Ct 0.06 mg/L” value (K. pneumoniae 59; Ct 0.06 mg/L, at extrapolated dose) was 100%, the “Stasis: Taniborbactam %ƒT > Ct 0.125 mg/L” value (K. pneumoniae 59; Ct 0.125 mg/L) was 69.3% and the “1 log kill: Taniborbactam %ƒT > Ct 0.125 mg/L” value (K. pneumoniae 59; Ct 0.125 mg/L, at extrapolated dose) was 100%. The “Stasis: Taniborbactam %ƒT > Ct 0.25 mg/L” value (K. pneumoniae 59; Ct 0.25 mg/L) was 52.4% and the “1 log kill: Taniborbactam %ƒT > Ct 0.25 mg/L” value (K. pneumoniae 59; Ct 0.25 mg/L, at extrapolated dose) was 100%.
